# Results taken from ChEMBL document CHEMBL5723587, “Data for DCP probe BI-113823” (2024).
# Columns and labels:
# [1] = target: 5-hydroxytryptamine receptor 1B (Homo sapiens) (UniProt P28222); assay: 5-HT1B Eurofins-Cerep binding assay; design: ligand concentration 1 nM; details: Compound concentration 10.0 uM
# [2] = target: Cannabinoid receptor 1 (Homo sapiens) (UniProt P21554); assay: CB1 Eurofins-Cerep binding assay; details: Compound concentration 10.0 uM
# [3] = target: Prostaglandin G/H synthase 1 (Homo sapiens) (UniProt P23219); assay: Inhibitor of COX-1 in the Eurofins Cerep SafetyScreen44 (BI) by Fluorimetry (Cerep_4173); details: Compound concentration 10.0 uM
# [4] = target: Prostaglandin G/H synthase 2 (Homo sapiens) (UniProt P35354); assay: Inhibitor of COX-2 in the Eurofins Cerep SafetyScreen44 (BI) by Fluorimetry (Cerep_4186); details: Compound concentration 10.0 uM
# [5] = target: Kappa-type opioid receptor (Homo sapiens) (UniProt P41145); assay: kappa (KOP) Eurofins-Cerep binding assay; details: Compound concentration 10.0 uM
# [6] = target: 5-hydroxytryptamine receptor 1A (Homo sapiens) (UniProt P08908); assay: 5-HT1A Eurofins-Cerep binding assay; design: ligand concentration 0.5 nM; details: Compound concentration 10.0 uM
# [7] = target: 5-hydroxytryptamine receptor 2A (Homo sapiens) (UniProt P28223); assay: Agonist activity in the Eurofins Cerep SafetyScreen44 (BI) against 5HT2AH_AGON by Scintillation counting (Cerep_471); details: Compound concentration 10.0 uM
# [8] = target: 5-hydroxytryptamine receptor 2B (Homo sapiens) (UniProt P41595); assay: 5-HT2B Eurofins-Cerep binding assay; details: Compound concentration 10.0 uM
# [9] = target: 5-hydroxytryptamine receptor 3A (Homo sapiens) (UniProt P46098); assay: 5-HT3 Eurofins-Cerep binding assay; design: ligand concentration 0.5 nM; details: Compound concentration 10.0 uM
# [10] = target: Adenosine receptor A2a (Homo sapiens) (UniProt P29274); assay: A2A Eurofins-Cerep binding assay; design: ligand concentration 6 nM; details: Compound concentration 10.0 uM
# [11] = target: Angiotensin-converting enzyme (Homo sapiens) (UniProt P12821); assay: Activity against ACE(HU_AMTCH400) in the Eurofins Cerep SafetyScreen44 (BI) by Photometry (Cerep_3441); details: Compound concentration 10.0 uM
# [12] = target: Alpha-1A adrenergic receptor (Homo sapiens) (UniProt P35348); assay: Agonist activity in the Eurofins Cerep SafetyScreen44 (BI) against ALPHA1AH_ANTAG by Scintillation counting (Cerep_2338); details: Compound concentration 10.0 uM
# [13] = target: Alpha-2A adrenergic receptor (Homo sapiens) (UniProt P08913); assay: Inhibitor of ALPHA2A/HU in the Eurofins Cerep SafetyScreen44 (BI) by Radioactive Assay (Cerep_13); details: Compound concentration 10.0 uM
# [14] = target: Beta-1 adrenergic receptor (Homo sapiens) (UniProt P08588); assay: beta 1 Eurofins-Cerep binding assay; design: ligand concentration 0.3 nM; details: Compound concentration 10.0 uM
# [15] = target: Beta-2 adrenergic receptor (Homo sapiens) (UniProt P07550); assay: beta 2 Eurofins-Cerep binding assay; details: Compound concentration 10.0 uM
# [16] = species: Rattus norvegicus; assay: Activity against BZD/CENTR/R in the Eurofins Cerep SafetyScreen44 (BI) by Radioactive Assay (Cerep_28); type: protein-complex assay; details: Compound concentration 10.0 uM
# [17] = target: L-type calcium channel (dihydropyridine site), Cav1.2 alpha-1C (Rattus norvegicus, UniProt P22002); assay: Inhibitor of CA+/DHPSI/R in the Eurofins Cerep SafetyScreen44 (BI) by Radioactive Assay (Cerep_161); type: protein assay; design: scale not given: the % may be the effect or the level left; details: rat brain, probe [3H](+)PN200-110, compound concentration 10 uM, read-out: % Ctrl
# [18] = target: Cannabinoid receptor 2 (Homo sapiens) (UniProt P34972); assay: Activity against CB2/PERIPH/H in the Eurofins Cerep SafetyScreen44 (BI) by Radioactive Assay (Cerep_37); details: Compound concentration 10.0 uM
# [19] = target: Cholecystokinin receptor type A (Homo sapiens) (UniProt P32238); assay: CCK1 (CCKA) Eurofins-Cerep binding assay; design: ligand concentration 0.08 nM; details: Compound concentration 10.0 uM
# [20] = target: D(1A) dopamine receptor (Homo sapiens) (UniProt P21728); assay: D1 Eurofins-Cerep binding assay; design: ligand concentration 0.3 nM; details: Compound concentration 10.0 uM
# [21] = target: D(2) dopamine receptor (Homo sapiens) (UniProt P14416); assay: Agonist activity in the Eurofins Cerep SafetyScreen44 (BI) against D2SH_AGON by Scintillation counting (Cerep_1322); details: Compound concentration 10.0 uM
# [22] = target: Sodium-dependent dopamine transporter (Homo sapiens) (UniProt Q01959); assay: dopamine transporter Eurofins-Cerep binding assay; details: Compound concentration 10.0 uM
# [23] = target: Delta-type opioid receptor (Homo sapiens) (UniProt P41143); assay: delta (DOP) Eurofins-Cerep binding assay; design: ligand concentration 0.5 nM; details: Compound concentration 10.0 uM
# [24] = target: Endothelin-1 receptor (Homo sapiens) (UniProt P25101); assay: ETA Eurofins-Cerep binding assay; design: ligand concentration 0.03 nM; details: Compound concentration 10.0 uM
# [25] = target: Glucocorticoid receptor (Homo sapiens) (UniProt P04150); assay: GR Eurofins-Cerep binding assay; details: Compound concentration 10.0 uM
# [26] = target: Histamine H1 receptor (Homo sapiens) (UniProt P35367); assay: H1 Eurofins-Cerep binding assay; design: ligand concentration 1 nM; details: Compound concentration 10.0 uM
# [27] = target: Histamine H2 receptor (Homo sapiens) (UniProt P25021); assay: H2 Eurofins-Cerep binding assay; design: ligand concentration 0.075 nM; details: Compound concentration 10.0 uM
# [28] = target: hERG (KCNH2) (Homo sapiens, UniProt Q12809); assay: Inhibitor of HERG_DOFETILIDE in the Eurofins Cerep SafetyScreen44 (BI) by Scintillation counting (Cerep_4094); design: scale not given: the % may be the effect or the level left; details: probe [3H]dofetilide, compound concentration 10 uM, read-out: % Ctrl
# [29] = species: Rattus norvegicus; assay: KV channel Eurofins-Cerep binding assay; design: ligand concentration 0.01 nM; details: Compound concentration 10.0 uM
# [30] = target: Tyrosine-protein kinase Lck (Homo sapiens) (UniProt P06239); assay: Inhibitor of LCK_CE in the Eurofins Cerep SafetyScreen44 (BI) by lanthanide chelation excitation (Cerep_2906); details: Compound concentration 10.0 uM
# [31] = target: Muscarinic acetylcholine receptor M1 (Homo sapiens) (UniProt P11229); assay: M1 Eurofins-Cerep binding assay; design: ligand concentration 2 nM; details: Compound concentration 10.0 uM
# [32] = target: Muscarinic acetylcholine receptor M2 (Homo sapiens) (UniProt P08172); assay: M2 Eurofins-Cerep binding assay; design: ligand concentration 2 nM; details: Compound concentration 10.0 uM
# [33] = target: Muscarinic acetylcholine receptor M3 (Homo sapiens) (UniProt P20309); assay: M3 Eurofins-Cerep binding assay; design: ligand concentration 0.2 nM; details: Compound concentration 10.0 uM
# [34] = target: MAO-A (amine oxidase [flavin-containing] A) (Homo sapiens, UniProt P21397); assay: Agonist activity in the Eurofins Cerep SafetyScreen44 (BI) against MAO-A_ANTAG by Scintillation counting (Cerep_443); design: scale not given: the % may be the effect or the level left; details: rat; compound concentration 10 uM; target entry is the homologue from another species; read-out: % Ctrl
# [35] = target: Mu-type opioid receptor (Homo sapiens) (UniProt P35372); assay: mu (MOP) Eurofins-Cerep binding assay; design: ligand concentration 0.5 nM; details: Compound concentration 10.0 uM
# [36] = target: Sodium-dependent noradrenaline transporter (Homo sapiens) (UniProt P23975); assay: norepinephrine transporter Eurofins-Cerep binding assay; design: ligand concentration 1 nM; details: Compound concentration 10.0 uM
# [37] = target: Glutamate NMDA receptor (Rattus norvegicus) (UniProt P35439+Q00959+Q00960+Q00961+Q62645+Q8VHN2+Q9R1M7); assay: Inhibitor of NMDA/R in the Eurofins Cerep SafetyScreen44 (BI) by Radioactive Assay (Cerep_66); type: protein-complex assay; details: Compound concentration 10.0 uM
# [38] = species: Homo sapiens; assay: Agonist activity in the Eurofins Cerep SafetyScreen44 (BI) against N_NEURO_A4B2 by Radioligand Binding (Cerep_3029); type: protein-complex assay; details: Compound concentration 10.0 uM
# [39] = target: cGMP-inhibited 3',5'-cyclic phosphodiesterase 3A (Homo sapiens) (UniProt Q14432); assay: Inhibitor of PDE3A in the Eurofins Cerep SafetyScreen44 (BI) by HTRF-homogeneous time resolved fluoresce (Cerep_4072); details: Compound concentration 10.0 uM
# [40] = target: 3',5'-cyclic-AMP phosphodiesterase 4D (Homo sapiens) (UniProt Q08499); assay: Inhibitor of PDE4D2 in the Eurofins Cerep SafetyScreen44 (BI) by Scintillation counting (Cerep_4077); details: Compound concentration 10.0 uM
# [41] = target: Sodium-dependent serotonin transporter (Homo sapiens) (UniProt P31645); assay: 5-HT transporter Eurofins-Cerep binding assay; design: ligand concentration 2 nM; details: Compound concentration 10.0 uM
# [42] = target: Vasopressin V1a receptor (Homo sapiens) (UniProt P37288); assay: V1a Eurofins-Cerep binding assay; design: ligand concentration 0.3 nM; details: Compound concentration 10.0 uM
# [43] = target: T1, B1 bradykinin receptor (Homo sapiens, UniProt P46663); assay: Radioligand binding assay (displacement of kallidin, hBDKRB1 ) at 10 µM ( Non-specific binding is estimated in the presence of 10 µM Des-Arg9- (Leu8)-Bradykinin. Membranes are filtered and washed, the filters are then counted to determine [3H]Kallidin[des-Arg10, Leu9] specifically bound.); design: compound concentration 10 uM
# T1 sequence (P46663 whole entry): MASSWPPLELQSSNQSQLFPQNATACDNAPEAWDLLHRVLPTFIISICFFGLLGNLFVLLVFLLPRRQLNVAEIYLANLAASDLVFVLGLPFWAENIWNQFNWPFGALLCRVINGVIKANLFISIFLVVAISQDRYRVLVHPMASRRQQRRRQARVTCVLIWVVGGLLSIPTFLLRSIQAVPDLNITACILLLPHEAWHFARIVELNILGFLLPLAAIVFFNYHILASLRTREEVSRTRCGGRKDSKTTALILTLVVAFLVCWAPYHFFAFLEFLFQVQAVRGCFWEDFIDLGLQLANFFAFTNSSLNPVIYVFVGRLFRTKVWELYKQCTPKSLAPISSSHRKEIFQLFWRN
# [44] = target: T1, B1 bradykinin receptor; assay: Measurement of intracellular calcium in HEK-cells expressing hBDKRB1 at up to 1 µM ( The compound antagonizes the effects of the specific B1 agonist [Lys-des-Arg9 ]-Bradykinin (10 nM) in a concentration-dependent manner.); type: functional, cell-based; design: compound concentration < 1 uM
# [45] = target: Androgen receptor (Homo sapiens) (UniProt P10275); details: Compound concentration 10.0 uM
# Description: Activity against ANDROGEN/H in the Eurofins Cerep SafetyScreen44 (BI) by Radioactive Assay (Cerep_933)
# Sequence of 5-hydroxytryptamine receptor 1B (Homo sapiens) (P28222 whole entry): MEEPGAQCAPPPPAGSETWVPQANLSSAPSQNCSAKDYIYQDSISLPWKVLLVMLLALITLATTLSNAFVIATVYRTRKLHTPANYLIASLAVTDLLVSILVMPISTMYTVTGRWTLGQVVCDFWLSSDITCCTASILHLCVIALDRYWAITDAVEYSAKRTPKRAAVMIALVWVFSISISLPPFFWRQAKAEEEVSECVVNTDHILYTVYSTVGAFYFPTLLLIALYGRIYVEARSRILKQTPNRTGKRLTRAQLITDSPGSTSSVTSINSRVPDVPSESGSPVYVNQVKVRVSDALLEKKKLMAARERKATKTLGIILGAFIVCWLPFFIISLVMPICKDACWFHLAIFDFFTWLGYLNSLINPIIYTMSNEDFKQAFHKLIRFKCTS
# Sequence of Sodium-dependent noradrenaline transporter (Homo sapiens) (P23975 whole entry): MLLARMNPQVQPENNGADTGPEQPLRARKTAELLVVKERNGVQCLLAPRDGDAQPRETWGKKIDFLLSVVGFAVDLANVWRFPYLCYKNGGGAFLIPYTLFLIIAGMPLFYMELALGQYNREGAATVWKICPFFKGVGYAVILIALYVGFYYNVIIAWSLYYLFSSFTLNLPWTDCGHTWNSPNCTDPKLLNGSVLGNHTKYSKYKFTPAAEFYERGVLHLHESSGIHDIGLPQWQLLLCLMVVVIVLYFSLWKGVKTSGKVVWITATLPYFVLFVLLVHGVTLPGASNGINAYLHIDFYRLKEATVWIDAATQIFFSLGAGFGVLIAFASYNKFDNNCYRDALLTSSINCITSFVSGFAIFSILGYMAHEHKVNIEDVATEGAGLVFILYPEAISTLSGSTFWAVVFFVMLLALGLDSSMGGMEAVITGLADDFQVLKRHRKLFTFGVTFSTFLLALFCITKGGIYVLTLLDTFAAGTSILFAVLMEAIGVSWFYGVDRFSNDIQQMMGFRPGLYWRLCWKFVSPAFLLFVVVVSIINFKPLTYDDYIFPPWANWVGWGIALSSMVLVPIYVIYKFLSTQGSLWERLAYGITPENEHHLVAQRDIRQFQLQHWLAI
# Sequence of L-type calcium channel (dihydropyridine site), Cav1.2 alpha-1C (P22002 whole entry): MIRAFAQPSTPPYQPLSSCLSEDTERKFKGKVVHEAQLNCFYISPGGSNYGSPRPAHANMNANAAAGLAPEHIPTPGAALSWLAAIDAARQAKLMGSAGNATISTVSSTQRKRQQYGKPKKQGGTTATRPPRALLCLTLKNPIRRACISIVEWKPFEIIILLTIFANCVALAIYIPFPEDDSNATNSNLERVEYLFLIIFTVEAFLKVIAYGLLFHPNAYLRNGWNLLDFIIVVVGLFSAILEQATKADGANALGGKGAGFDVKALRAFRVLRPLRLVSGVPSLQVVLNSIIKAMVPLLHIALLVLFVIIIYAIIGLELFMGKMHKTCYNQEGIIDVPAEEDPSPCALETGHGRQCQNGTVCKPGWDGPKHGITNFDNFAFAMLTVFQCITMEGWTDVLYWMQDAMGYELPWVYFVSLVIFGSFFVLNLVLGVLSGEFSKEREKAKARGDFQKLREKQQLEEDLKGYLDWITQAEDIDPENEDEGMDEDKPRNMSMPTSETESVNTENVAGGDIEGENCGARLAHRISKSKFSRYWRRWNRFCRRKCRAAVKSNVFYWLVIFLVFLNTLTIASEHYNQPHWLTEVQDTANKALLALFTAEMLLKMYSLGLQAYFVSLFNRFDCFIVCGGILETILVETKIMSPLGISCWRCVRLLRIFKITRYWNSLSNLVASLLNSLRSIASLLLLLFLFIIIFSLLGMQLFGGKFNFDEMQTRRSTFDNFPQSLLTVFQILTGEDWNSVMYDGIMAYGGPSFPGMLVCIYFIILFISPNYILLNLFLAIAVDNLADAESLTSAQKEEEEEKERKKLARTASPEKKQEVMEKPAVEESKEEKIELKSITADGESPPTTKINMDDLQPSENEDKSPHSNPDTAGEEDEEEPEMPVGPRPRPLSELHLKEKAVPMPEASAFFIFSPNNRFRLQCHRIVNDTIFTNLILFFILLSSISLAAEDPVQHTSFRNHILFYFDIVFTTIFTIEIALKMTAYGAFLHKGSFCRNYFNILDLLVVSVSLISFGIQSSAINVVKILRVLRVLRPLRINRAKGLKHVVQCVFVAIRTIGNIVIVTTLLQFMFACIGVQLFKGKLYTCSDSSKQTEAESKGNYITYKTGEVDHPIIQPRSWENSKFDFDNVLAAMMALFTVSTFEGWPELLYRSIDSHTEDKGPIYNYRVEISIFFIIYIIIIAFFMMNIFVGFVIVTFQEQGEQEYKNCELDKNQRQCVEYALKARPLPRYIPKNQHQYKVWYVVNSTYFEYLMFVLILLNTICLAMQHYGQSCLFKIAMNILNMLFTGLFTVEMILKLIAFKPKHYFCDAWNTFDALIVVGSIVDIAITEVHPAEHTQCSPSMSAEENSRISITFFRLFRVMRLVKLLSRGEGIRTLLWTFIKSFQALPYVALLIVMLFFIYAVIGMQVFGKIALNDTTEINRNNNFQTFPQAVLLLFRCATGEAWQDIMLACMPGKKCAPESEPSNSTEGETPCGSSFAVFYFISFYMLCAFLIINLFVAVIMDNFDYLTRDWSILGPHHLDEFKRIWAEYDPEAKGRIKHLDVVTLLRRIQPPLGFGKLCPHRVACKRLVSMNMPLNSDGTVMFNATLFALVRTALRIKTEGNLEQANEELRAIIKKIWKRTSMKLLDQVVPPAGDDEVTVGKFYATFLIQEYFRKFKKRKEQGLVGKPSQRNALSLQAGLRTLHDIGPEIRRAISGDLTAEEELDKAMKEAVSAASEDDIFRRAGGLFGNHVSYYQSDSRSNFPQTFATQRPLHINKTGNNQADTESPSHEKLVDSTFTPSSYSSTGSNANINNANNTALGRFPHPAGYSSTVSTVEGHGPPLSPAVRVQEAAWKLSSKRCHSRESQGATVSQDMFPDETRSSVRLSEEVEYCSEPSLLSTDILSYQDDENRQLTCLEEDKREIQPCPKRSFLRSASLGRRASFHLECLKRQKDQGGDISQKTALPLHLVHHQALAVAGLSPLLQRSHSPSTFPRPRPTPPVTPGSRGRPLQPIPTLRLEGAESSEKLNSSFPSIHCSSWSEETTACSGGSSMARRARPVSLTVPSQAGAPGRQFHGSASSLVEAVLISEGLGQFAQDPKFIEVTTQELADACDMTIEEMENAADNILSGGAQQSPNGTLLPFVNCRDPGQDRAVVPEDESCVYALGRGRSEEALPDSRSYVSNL
# Sequence of Alpha-2A adrenergic receptor (Homo sapiens) (P08913 whole entry): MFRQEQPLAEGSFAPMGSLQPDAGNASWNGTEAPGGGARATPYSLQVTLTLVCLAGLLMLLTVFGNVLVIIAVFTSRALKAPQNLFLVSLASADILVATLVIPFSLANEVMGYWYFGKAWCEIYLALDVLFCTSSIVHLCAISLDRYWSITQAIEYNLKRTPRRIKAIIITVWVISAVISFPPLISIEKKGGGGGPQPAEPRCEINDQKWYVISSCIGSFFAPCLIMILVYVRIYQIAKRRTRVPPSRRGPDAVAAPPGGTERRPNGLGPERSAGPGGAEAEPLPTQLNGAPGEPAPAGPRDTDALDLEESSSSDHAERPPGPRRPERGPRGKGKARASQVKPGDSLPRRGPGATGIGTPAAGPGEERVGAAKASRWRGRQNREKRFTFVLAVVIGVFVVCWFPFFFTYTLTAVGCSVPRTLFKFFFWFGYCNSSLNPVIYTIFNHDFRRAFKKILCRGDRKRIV
# Sequence of Kappa-type opioid receptor (Homo sapiens) (P41145 whole entry): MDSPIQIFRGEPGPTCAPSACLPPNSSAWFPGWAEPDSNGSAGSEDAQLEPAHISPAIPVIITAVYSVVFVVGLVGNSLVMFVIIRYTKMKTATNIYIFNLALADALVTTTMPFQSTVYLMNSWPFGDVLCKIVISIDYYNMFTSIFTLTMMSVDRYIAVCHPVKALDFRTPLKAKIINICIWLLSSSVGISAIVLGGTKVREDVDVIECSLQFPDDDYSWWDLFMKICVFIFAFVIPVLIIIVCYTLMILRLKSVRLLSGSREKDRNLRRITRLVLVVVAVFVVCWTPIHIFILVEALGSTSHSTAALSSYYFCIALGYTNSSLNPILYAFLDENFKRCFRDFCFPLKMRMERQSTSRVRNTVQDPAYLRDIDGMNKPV
# Sequence of Endothelin-1 receptor (Homo sapiens) (P25101 whole entry): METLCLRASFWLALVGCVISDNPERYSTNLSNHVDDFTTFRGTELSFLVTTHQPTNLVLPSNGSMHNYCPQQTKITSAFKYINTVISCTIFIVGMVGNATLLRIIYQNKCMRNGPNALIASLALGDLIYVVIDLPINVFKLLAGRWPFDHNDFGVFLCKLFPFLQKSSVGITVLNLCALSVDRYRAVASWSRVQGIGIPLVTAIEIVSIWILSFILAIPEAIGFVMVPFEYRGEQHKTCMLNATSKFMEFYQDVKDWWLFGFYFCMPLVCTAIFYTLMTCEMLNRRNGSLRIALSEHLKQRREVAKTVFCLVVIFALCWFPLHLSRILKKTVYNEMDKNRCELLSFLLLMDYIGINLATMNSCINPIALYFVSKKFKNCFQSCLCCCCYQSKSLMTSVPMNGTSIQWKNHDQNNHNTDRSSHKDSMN
# Sequence of Muscarinic acetylcholine receptor M1 (Homo sapiens) (P11229 whole entry): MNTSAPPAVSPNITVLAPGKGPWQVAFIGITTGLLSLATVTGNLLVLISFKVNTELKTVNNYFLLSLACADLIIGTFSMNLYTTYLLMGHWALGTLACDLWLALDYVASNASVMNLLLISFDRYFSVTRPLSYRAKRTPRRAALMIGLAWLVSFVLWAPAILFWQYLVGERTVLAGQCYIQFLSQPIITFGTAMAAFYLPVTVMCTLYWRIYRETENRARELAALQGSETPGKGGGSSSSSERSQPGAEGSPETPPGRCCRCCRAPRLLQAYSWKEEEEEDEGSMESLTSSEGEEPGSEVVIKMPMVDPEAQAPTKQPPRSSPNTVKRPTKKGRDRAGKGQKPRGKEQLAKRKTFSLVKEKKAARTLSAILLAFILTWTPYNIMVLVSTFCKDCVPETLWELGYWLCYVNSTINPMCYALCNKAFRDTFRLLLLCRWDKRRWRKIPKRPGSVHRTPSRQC
smiles,measurement,setting,value
COc1cc(C)c(S(=O)(=O)N(C)CCC(=O)N[C@H]2CC[C@@H](N3CCC4CN(C)CC4C3)CC2)c(C)c1 (stereo not given in full),residual activity,[1],92%
same,residual activity,[2],137%
same,residual activity,[3],85%
same,residual activity,[4],98%
same,residual activity,[5],42%
same,residual activity,[6],99%
same,residual activity,[7],108%
same,residual activity,[8],81%
same,residual activity,[9],93%
same,residual activity,[10],124%
same,residual activity,[11],97%
same,residual activity,[12],91%
same,residual activity,[13],90%
same,residual activity,[14],97%
same,residual activity,[15],101%
same,residual activity,[16],105%
same,activity at 10 µM,[17],120% (not active)
same,residual activity,[18],106%
same,residual activity,[19],85%
same,residual activity,[20],94%
same,residual activity,[21],97%
same,residual activity,[22],98%
same,residual activity,[23],87%
same,residual activity,[24],109%
same,residual activity,[25],102%
same,residual activity,[26],104%
same,residual activity,[27],113%
same,activity at 10 µM,[28],63% (not active)
same,residual activity,[29],98%
same,residual activity,[30],94%
same,residual activity,[31],89%
same,residual activity,[32],67%
same,residual activity,[33],92%
same,activity at 10 µM,[34],106% (not active)
same,residual activity,[35],96%
same,residual activity,[36],93%
same,residual activity,[37],112%
same,residual activity,[38],98%
same,residual activity,[39],105%
same,residual activity,[40],104%
same,residual activity,[41],103%
same,residual activity,[42],87%
same,Ki,[43],0.431 µM (not active)
same,IC50,[44],0.699 µM (not active)
same,residual activity,[45],90%
